Measured values as given in PubChem BioAssay AID624258 (Broad Institute, 2012).
Calls of active or inactive are those of the source. How the calls were made is not given here.

Assay: SKN7 mediated toxicity in Saccharomyces cerevisiae, growth rescue counterscreen, dose confirmation (AID 624258);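 further: growth read after three days of incubation at 30 °C; 0% = median of neutral control wells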
Conditions: S. cerevisiae SKN7-toxicity growth rescue, plate reader; at 6.8 µM (top of the series)

Compound | growth rescue activity
CN(C)CCCNc1cc(C(C)(C)C)nc2c(-c3ccc(Cl)cc3)cnn12 | 14.1% (inactive)
CCOC(=O)c1cc2c(=Cc3ccc(N(C)C)cc3)c3ccccc3n2[n+]1C | -71.9% (inactive)
CCc1cc(SC#N)cc(C)c1NC(=O)CCl | -50.8% (inactive)
COc1cccc(C(C)=C2SC(=S)NC2=O)c1 | -39% (inactive)
Cc1ccc(NC(=S)Nc2cccc3cnccc23)cc1C | -25.1% (inactive)
CC1(C)CC(=O)C(C2C3=C(CC(C)(C)CC3=O)Oc3c(Br)cc(Br)cc32)=C(O)C1 (stereo not given) | -21.5% (inactive)
CCc1c(C2(O)CCCCC2)[nH]c2ccc(C(F)(F)F)cc12 | 85.9% (inactive)
Cc1ccc(C(=O)C(SC(C)(C)C)n2cncn2)cc1 (stereo not given) | 27.6% (inactive)

Same assay, conditions: S. cerevisiae SKN7-toxicity growth rescue, plate reader; at 19.5 µM (top of the series)

Compound | growth rescue activity
COc1ccc(C(C)(C)C)cc1NC(=O)COC(=O)c1ccc([N+](=O)[O-])o1 | -88.2% (inactive)
CNc1ccc2oc(C[C@H]3O[C@@]4(CC[C@H]3C)O[C@H]([C@H](C)C(=O)c3ccc[nH]3)[C@H](C)C[C@H]4C)nc2c1C(=O)O | -78.1% (inactive)
Cn1nnnc1N=N/C(=N/Nc1ccccc1)c1ccccc1 | -47% (inactive)
O=S(=O)(Nc1cc(Sc2ncn[nH]2)c(O)c2ccccc12)c1ccccc1 | -4.91% (inactive)
COC(=O)Cc1cc(=O)n(-c2ccccc2)[nH]1 | 9.07% (inactive)
COc1cc(/C=N/O)cc(Br)c1OCc1cccc(Cl)c1 | -82% (inactive)
S=C1NC[C@H](c2ccccc2)N1CCCCC1CCCCC1 | 85.2% (inactive)
O=S(=O)(c1ccc(Cl)cc1)N1CCC2(CC1)OCCN2S(=O)(=O)c1cccs1 | -46.5% (inactive)
COc1ccc2oc(=O)c(-c3csc(Nc4cccc(O)c4)n3)cc2c1 | 12.4% (inactive)
O=C(O)CSc1cc(NS(=O)(=O)c2ccc(Cl)cc2)c2ccccc2c1O | -5.81% (inactive)
O=C(N1CCN(c2ccccc2)CC1)C1(S(=O)(=O)c2ccc(Cl)cc2)CC1 | 21.3% (inactive)
Cc1oc2c(c1C(=O)c1ccccc1)C(=O)C(=O)c1ccccc1-2 | 16.8% (inactive)
CN(c1ccccc1)c1nc(N2CCCC2)nc(-n2ccnc2)n1 | -4.75% (inactive)
COC(=O)C(=N/Nc1ccccc1C(=O)OC)/C(C)=N/O | -7.81% (inactive)
Cc1cc(C)c(C(=O)CC(=O)c2cccnc2)c(C)c1 | -57.9% (inactive)
CC(=O)Nc1cccc(-c2cc(-c3c(Cl)cccc3Cl)no2)c1 | -92.6% (inactive)
[O-][n+]1cccc2c(Br)cc(Br)c(O)c21 | -82.7% (inactive)
CCCS(=O)(=O)c1c(S(=O)(=O)CCC)c2c(C)cccn2c1C(=O)N/N=C/c1cc(O)cc(O)c1 | 22.5% (inactive)
CCn1c2ccc(C)cc2c2nc3cc(C(=O)O)ccc3nc21 | 18.7% (inactive)
CC(C)N1CCN(c2ccc(OCC3COC(Cn4cncn4)(c4ccc(Cl)cc4Cl)O3)cc2)CC1 (stereo not given) | -56.9% (inactive)
COc1nc(NC23CC4CC(CC(C4)C2)C3)nc(OC)n1 | 145% (inactive)
O=C(CC1(O)C(=O)Nc2cc(Cl)cc(Cl)c21)c1ccncc1 (stereo not given) | -23.3% (inactive)

Compound | growth rescue activity
O=CC1=C(c2ccccc2)Oc2ccccc2O1 | -88.1% (inactive)
Oc1c(Br)cc(Br)cc1CNc1ccc(F)cc1 | -92% (inactive)
O=C(NCCN1C(=O)S/C(=C\c2cccc(Cl)c2Cl)C1=O)C1=COCCO1 | 13.6% (inactive)
CCc1cc(-c2[nH]ncc2-c2ccc([N+](=O)[O-])cc2)c(O)cc1OC | -43.8% (inactive)
CCOC(=O)N1C(=O)C2(CCCCC2)N(c2ccccc2Cl)C1=S | -49.5% (inactive)
CCCCC(=O)NC(c1ccco1)c1cc(Cl)c2cccnc2c1O (stereo not given) | -45% (inactive)
Cc1csc(NC(=O)C(C)Oc2ccc(Cl)cc2C)n1 (stereo not given) | 10.9% (inactive)
O=C(CSc1ccc(-c2ccccn2)nn1)NCc1ccc(Cl)cc1 | -56.5% (inactive)
C=CCc1ccc(O)c(-c2ccc(O)c(CC=C)c2)c1 | -65.1% (inactive)
O=c1c2ccccc2c(-c2ccc(O)cc2)nn1-c1cccc(C(F)(F)F)c1 | -88.1% (inactive)
O=C1OC(c2ccccc2)=NC12CC2c1ccc(Cl)cc1 (stereo not given) | -72.5% (inactive)
Cc1[nH]n(C(N)=S)c(=O)c1N=Nc1ccc2ccccc2c1 | -41.4% (inactive)
Cn1cncc1C#Cc1c(-c2ccsc2)sc2ccccc12 | -77.3% (inactive)
CCCCCCCn1c(=O)c(C(=O)OC)c(N)c2ccccc21 | -87.1% (inactive)
COc1cc([N+](=O)[O-])cc(/C=N/NC(=O)c2cncc(Br)c2)c1O | -13.3% (inactive)
COc1cccc2c1C(=O)c1c(O)c3c(c(O)c1C2=O)C[C@@](O)(C(C)=O)C[C@@H]3O[C@H]1C[C@H](N)[C@H](O)[C@H](C)O1 | 23.7% (inactive)
CC(C)CNC(=O)COC(=O)c1ccc([N+](=O)[O-])cc1Cl | 3.79% (inactive)
O=[N+]([O-])c1ccc2c(c1)Cc1cc(O)ccc1-2 | 4.71% (inactive)
c1ccc(C(=NNc2nc3ccccc3s2)c2ccccn2)cc1 | -69.9% (inactive)
Clc1ccccc1CN(Cc1ccco1)Cc1nnnn1C1CCCC1 | -4.89% (inactive)
COc1cccc(/C=N/Nc2ncnc3scc(-c4ccccc4)c23)c1O | -79.1% (inactive)
C=CCNc1nc(-c2ccccn2)nnc1-c1ccccc1 | -28.2% (inactive)

Compound | growth rescue activity
CCCCC(CC)c1nnc(NC(=O)c2cccs2)s1 (stereo not given) | -59.6% (inactive)
CC(C)(C)OC(=O)N1CCC(c2cc(-c3cccs3)n[nH]2)CC1 | -58.6% (inactive)
CCCCNc1c(-c2cccc(-c3ccc(OC)cc3)c2)nc2ccc(C)cn12 | -90.6% (inactive)
CC1(OC(=O)CCc2ccccc2)C(=O)C=C2C=C(c3ccc(C#N)cc3)N(Cc3ccco3)C=C2C1=O (stereo not given) | 3.67% (inactive)
CCC(NC(=S)NCc1ccc(F)cc1)c1ccc(C(C)C)cc1 (stereo not given) | 41.2% (inactive)
Oc1c(Cl)cc(Cl)cc1/C=N/NC(=S)NC1CC2C=CC1C2 (stereo not given) | -42.5% (inactive)
CCOC(=O)C1=C(C)NC(=O)C1CC(=O)O (stereo not given) | -16.2% (inactive)
CC(C)(CN1CCc2ccccc2C1)NS(=O)(=O)c1ccc(Cl)cc1 | -9.34% (inactive)
Cc1ccc(S(=O)(=O)/N=C2/C=C(Sc3ncn[nH]3)C(=O)c3ccccc32)cc1 | 20.8% (inactive)
Cc1ccc(Sc2cc(C)nc(-c3ccccn3)n2)cc1 | -67.1% (inactive)
O=P(Nc1cccnc1)(Oc1ccccc1Cl)Oc1ccccc1Cl | -59% (inactive)
O=C(O)c1ccccc1NC(c1ccccc1)c1ccc2cccnc2c1O (stereo not given) | -59.1% (inactive)
Cc1ccsc1/C=C/c1ccc2cccc(O)c2n1 | -50.7% (inactive)
CCCCCOc1ccc(CSc2n[nH]c(C)n2)cc1 | -91.3% (inactive)
O=C1c2cc(F)ccc2-n2c1nc1ccccc1c2=O | -16.1% (inactive)
Cn1c(N=Nc2ccccc2)nc2ccccc21 | -85.7% (inactive)
CCCCOC(=O)/C=C/c1ccc(OC(=O)OC)c(OC(=O)OC)c1 | -13.9% (inactive)
CC(C)=CCc1c(O)ccc(C(=O)Cc2ccccc2)c1O | -92.2% (inactive)
COc1ccc(OC)c(-c2c3cc(O)c(=O)cc-3oc3cc(O)c(O)cc23)c1 | 26.2% (inactive)
COc1ccc2[nH]c(=O)c(CN(Cc3cccnc3)C(=O)Nc3ccccc3)cc2c1 | -61.1% (inactive)
COc1cc2cnc(-c3ccccc3)c(C(=O)c3ccc(F)cc3)c2cc1OC | 2.41% (inactive)
O=[N+]([O-])c1ccc2c(OCc3nnc(-c4ccccc4Br)o3)ncnc2c1 | 7.4% (inactive)

Compound | growth rescue activity
O=C(NCCC(=O)N1CCN(c2ccccc2O)CC1)c1ccc(Br)cc1 | -9.2% (inactive)
CCCCCCCCCCCCCC(=O)NO | -69.6% (inactive)
Cc1ccc(NC(=O)C2COc3ccccc3O2)cc1S(=O)(=O)N1CCCCC1 (stereo not given) | 35.9% (inactive)
O=C1C=C(NCc2ccccc2)c2ccccc2C1=O | 41.7% (inactive)
N#Cc1c(-c2cccc([N+](=O)[O-])c2)nc2n(c1=O)CCS2 | 1.05% (inactive)
CCN1/C(=C/c2sc(-c3ccccc3C)c[n+]2C)Sc2ccccc21 | -60.6% (inactive)
COC(=O)c1cccc2c1-c1ccccc1/C2=N/O | 30.5% (inactive)
O=C(/C(=N/N=C/c1ccc(O)c(O)c1O)c1ccccc1)c1ccccc1 | -75.4% (inactive)
C=C(C)COc1ccc(-c2[nH]ncc2-c2ccccc2)c(O)c1 | -93.2% (inactive)
O=Nc1c(O)c2ccccc2c2ccccc12 | -91.5% (inactive)
CCN(CC)c1ccc(/C=C/c2ccc3ccc(OC)cc3[n+]2CC)cc1 | -52.7% (inactive)
O=S1OC(c2ccccc2)c2cc(Cl)ccc21 (stereo not given) | -14.3% (inactive)
O/N=C/c1cc(Br)ccc1OCc1ccccc1F | -57.4% (inactive)
Nc1cc2nc3ccccc3oc-2cc1=O | -51.6% (inactive)
CCc1sc(C(=O)Nc2nc(-c3ccccn3)cs2)cc1C | -81% (inactive)
C=CCNC(=S)N1CCC(Cc2ccccc2)CC1 | -41% (inactive)
Cc1cccc(NC(=S)NC(C)CCc2ccccc2)c1 (stereo not given) | -40.4% (inactive)
O=C(NCc1ccccc1)c1ccc2nccnc2c1 | 17.6% (inactive)
Oc1c(I)cc(Cl)c2cccnc12 | -81.1% (inactive)
O=C(c1ccccc1)c1ccc(Cn2cc(-c3ccccc3)nn2)cc1 | 19.2% (inactive)
CCCCCCCCCCOC(=O)Cn1c(COc2ccccc2OC)[n+](C)c2ccccc21 | -82.3% (inactive)
